In patent publication US20240374607A1, “MEDICAMENT FOR PREVENTING AND/OR TREATING DRY EYE” (Santen Pharmaceutical Co., Ltd., priority 2021, published 2024):

Tests used:
[1] = system: dry-eye model SD rat with exorbital lacrimal gland removed; assay: Quantity of tears by Schirmer strip in dry-eye model, Tests 3 and 4; type: in vivo; settings: for Incremental difference in Schirmer's test at 0.5 hours after ocular instillation / Incremental difference in Schirmer's test at 8 hours after ocular instillation: 5 μL/eye, difference from vehicle-instilled group
Procedure: A somnopentyl injection five-fold diluted with physiological saline was intraperitoneally administered to a normal male SD (Sprague-Dawley) rat by 2.5 mL/kg, and the rat was given general anesthesia, followed by keeping the anesthetized state by inhalation of about 1 to 3% isoflurane. Then, the skin on each check was incised to remove the exorbital lacrimal gland, followed by suturation with a Michel suture clamp. In this test, an individual wherein reduction of tears was confirmed after 13 weeks from the removal of exorbital lacrimal gland was included as the experimental animal.
Half an hour after treatment of general anesthesia, Schirmer strip (1 mm×17 mm) was inserted to conjunctival sac of the lower eyelid of a rat, and then after 1 minute of the insertion, the wet part of the Schirmer strip was measured in increments of 0.5 mm. (N=14 or 16 eyes)
The quantity of tears was measured in a similar manner to Test 3. (N=10 eyes)
The following Tables 1 and 2 show incremental differences (mm/min) in Schirmer's test between the vehicle-instilled group and the ophthalmic-solution-instilled groups at 0.5 and 8 hours, respectively, after ocular instillation according to the results of Test 3 and Test 4. The symbol “-” in Tables 1 and 2 means not-performed.

[2] = system: normal male cynomolgus monkeys; assay: Tear film break-up time (TBUT) after single ocular instillation, Tests 1 and 2; settings: for Extension of TBUT: 1% (w/v) ophthalmic solution, single ocular instillation, FIG. 2
Procedure: TBUT measurement tests were conducted for 10 normal male cynomolgus monkeys by partial crossover design of 5 monkeys per group. The test animals were given general anesthesia by intramuscular injection with ketamine hydrochloride (Ketalar for intramuscular injection 500 mg (registered trademark), Daiichi Sankyo Company, Limited.), and then were let their eyes closed. Then, TBUT was measured before and at 15, 30, and 60 minutes after ocular instillation of a vehicle or each ophthalmic solution (20 μL/eye) to the right eye. Specifically, 1% fluorescein solution (2 μL/eye) was instilled, and the time right after opening of the eyelids until breaking of the fluorescein layer (tear film) on the cornea was measured three times under a slit lamp, followed by calculation of the average. (N=5 eyes)
TBUT was measured in a similar manner to the method of Test 1. (N=4 or 5 eyes)

[3] = system: normal male cynomolgus monkeys; assay: Intraocular pressure test, twice daily repeated instillation, Test 5; type: in vivo, cynomolgus monkey; settings: 20 μL/eye twice daily, Day 1, 7 and 14, FIG. 4
Procedure: Specifically, one drop of 0.4% oxybuprocaine hydrochloride ophthalmic solution (trade name: Benoxil (registered trademark) ophthalmic solution 0.4%) was instilled to the right eye so as to provide surface anesthesia, and then the intraocular pressure was measured three times with Mentor tonometer (applanation), followed by calculation of the average. (N=6 eyes)

[4] = system: dry-eye model rat whose exorbital lacrimal gland is excised; assay: Tear film break-up time in dry-eye model rat, Test 6; type: in vivo; settings: concentration of 0.00001% or more, 5 μL/eye, 0.5 and 2 hours after ocular instillation; FIG. 5
Source text: A male SD rat was given general anesthesia, the skin on each […] cheek was incised under the anesthetized state, and then the exorbital lacrimal gland was excised to prepare a dry-eye model rat whose exorbital lacrimal gland is excised.
Untreated normal rats were assigned to an untreated group, and dry-eye model rats whose exorbital lacrimal gland is excised were assigned to a vehicle group and each ophthalmic solution group, each group consisting of 6 rats. For each group, TBUT measurement tests were conducted.

Compound	Incremental difference in Schirmer's test at 0.5 hours after ocular instillation ([1]; 0.001% ophthalmic solution)	Incremental difference in Schirmer's test at 8 hours after ocular instillation ([1]; 0.001% ophthalmic solution, 8 hours)	Incremental difference in Schirmer's test at 0.5 hours after ocular instillation ([1]; 0.01% ophthalmic solution)	Incremental difference in Schirmer's test at 8 hours after ocular instillation ([1]; 0.01% ophthalmic solution, 8 hours)	Incremental difference in Schirmer's test at 0.5 hours after ocular instillation ([1]; 0.1% ophthalmic solution)	Incremental difference in Schirmer's test at 8 hours after ocular instillation ([1]; 0.1% ophthalmic solution, 8 hours)	Incremental difference in Schirmer's test at 0.5 hours after ocular instillation ([1]; 1% ophthalmic solution)	Incremental difference in Schirmer's test at 8 hours after ocular instillation ([1]; 1% ophthalmic solution, 8 hours)	Extension of TBUT [2]	Effect on intraocular pressure ([3]; 0.01% ophthalmic solution)	Effect on intraocular pressure ([3]; 0.1% ophthalmic solution)	TBUT-extending effect [4]	Lacrimal secretion at 8 hours after ocular instillation ([1]; 0.0001 to 0.01% instilled groups, 8 hours, FIG. 3)	Tear volumes at 16 hours after ocular instillation ([1]; 0.001 and 0.01% instilled groups, 16 hours, FIG. 3)	Lacrimal secretion ([1]; olodaterol-instilled groups 0.00001 to 0.01%, FIG. 3)	TBUT-extending effect ([2]; 0.0001, 0.001, 0.01% (w/v), single ocular instillation 20 μL/eye, 15, 30, 60 minutes, FIG. 1)
CC(Cc1ccc(O)cc1)NCC(O)c1cc(O)cc(O)c1 (centres unmarked) [fenoterol]	1.8 mm/min	0.0 mm/min	4.8 mm/min	0.2 mm/min	6.1 mm/min	0.9 mm/min	3.6 mm/min	1.1 mm/min	not confirmed	–	–	–	–	–	–	–
CC(C)(C)NCC(O)c1cc(Cl)c(N)c(Cl)c1 (centres unmarked) [clenbuterol]	–	–	–	–	–	–	–	–	not confirmed	–	–	–	–	–	–	–
COc1ccc(CC(C)(C)NC[C@H](O)c2cc(O)cc3c2OCC(=O)N3)cc1 [olodaterol, 6-hydroxy-8-((1R)-1-hydroxy-2-{[2-(4-methoxyphenyl)-1,1-dimethylethyl]amino}&shy;ethyl)-2H-1,4-benzoxazin-3-(4H)-one]	–	–	–	–	–	–	–	–	–	did not show increase and/or decrease the intraocular pressure	did not show increase and/or decrease the intraocular pressure	TBUT-extending effect was confirmed	highly enhanced	increase of tear volumes was observed	lacrimal secretion was enhanced	confirmed in a concentration-dependent manner
